#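 Where inhibition never reached the appropriate level, the endpoint shown equals the highest concentration tested. Otherwise, values were interpolated linearly from a five-concentration, 48-hour dose response in 96-well plates. GI50 marks 50% less growth. The concentration for full growth arrest is given as TGI.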
# Assays:
# Test in all cases: NCI-60 cell line screen, 48 h
# SK-MEL-28 melanoma = test system: SK-MEL-28 melanoma
# CAKI-1 renal = test system: CAKI-1 renal
# NCI-H226 lung = test system: NCI-H226 lung
# HOP-92 NSCLC = test system: HOP-92 NSCLC
# UACC-62 melanoma = test system: UACC-62 melanoma
# SW-620 colon = test system: SW-620 colon
# HOP-62 NSCLC = test system: HOP-62 NSCLC
# NCI-H460 lung = test system: NCI-H460 lung
# LOX IMVI melanoma = test system: LOX IMVI melanoma
Structure (SMILES),GI50 (SK-MEL-28 melanoma),TGI (SK-MEL-28 melanoma),GI50 (CAKI-1 renal),TGI (CAKI-1 renal),GI50 (NCI-H226 lung),TGI (NCI-H226 lung),GI50 (HOP-92 NSCLC),TGI (HOP-92 NSCLC),GI50 (UACC-62 melanoma),TGI (UACC-62 melanoma),GI50 (SW-620 colon),TGI (SW-620 colon),GI50 (HOP-62 NSCLC),TGI (HOP-62 NSCLC),GI50 (NCI-H460 lung),TGI (NCI-H460 lung),GI50 (LOX IMVI melanoma),TGI (LOX IMVI melanoma)
Cc1cccc2c(C3=C(c4cn(C)c5ccccc45)C(=O)NC3=O)cn(C)c12,17.5 µM,> 25 µM,> 19.1 µM,> 25 µM,> 25 µM,> 25 µM,9.91 µM,> 25 µM,> 25 µM,> 25 µM,12.7 µM,> 25 µM,13.4 µM,> 25 µM,> 21.8 µM,> 25 µM,> 22 µM,> 25 µM
Cc1cc(F)c(C(=O)Nc2cccc(-c3nncn3C(C)C)n2)cc1-n1cnc(C2CC2)c1,20.9 µM,64.7 µM,10.5 µM,> 100 µM,19.5 µM,80.7 µM,8.23 µM,> 100 µM,14.1 µM,48 µM,20.8 µM,> 100 µM,16.6 µM,58.8 µM,14.5 µM,96.4 µM,14.4 µM,35.9 µM
C=CC(=O)N[C@@H]1CN(c2nc(Nc3cn(C)nc3OC)c3ncn(C)c3n2)C[C@H]1F,50 µM,> 100 µM,1.22 µM,> 100 µM,> 83 µM,> 100 µM,17.3 µM,70.7 µM,23.1 µM,> 90.6 µM,26.9 µM,> 100 µM,26.2 µM,> 100 µM,34.5 µM,> 100 µM,30 µM,> 100 µM
O=C(O)C1C2C=CC(O2)C1C(=O)NCc1cccnc1 (configuration not stated),–,> 100 µM,–,> 100 µM,–,> 100 µM,–,> 100 µM,–,> 100 µM,–,> 100 µM,–,> 100 µM,–,> 100 µM,–,> 100 µM
CCOC(=O)/C(=C/CC/C(C)=C/CC/C(C)=C/CCc1ccoc1)CC(=O)N1CCCCC1,3.2 µM,12.4 µM,3.16 µM,38.3 µM,4.48 µM,19.4 µM,1.7 µM,4.26 µM,2.8 µM,12.7 µM,4.8 µM,19.2 µM,4.4 µM,19.8 µM,1.82 µM,3.7 µM,4.43 µM,15.8 µM
C[C@@H](C1CC[C@H]2[C@@H]3[C@@H]4O[C@@H]4[C@@]4(O)CC=CC(=O)[C@]4(C)[C@H]3C[C@H](O)[C@]12C)[C@H]1C[C@]2(C)O[C@]2(C)C(=O)O1 (some centres not stated),–,> 100 µM,–,> 100 µM,–,> 100 µM,–,> 100 µM,–,> 100 µM,–,> 100 µM,–,–,–,> 100 µM,–,> 100 µM
C[C@@H](O)[C@@H](C)Oc1nc(Nc2ccc(S(=N)(=O)C3CC3)cc2)ncc1C(F)(F)F (some centres not stated),0.0294 µM,0.178 µM,0.039 µM,> 100 µM,0.0288 µM,0.106 µM,0.026 µM,0.0753 µM,0.0249 µM,0.0931 µM,0.0281 µM,4.35 µM,0.0283 µM,16.4 µM,0.0303 µM,11.5 µM,0.0178 µM,10.7 µM

# — PubChem BioAssay (NCI)
